ChEMBL document CHEMBL5584232, “Hijacking monopolar spindle 1 (MPS1) for various cancer types by small molecular inhibitors: Deep insights from a decade of research and patents” (Eur J Med Chem, 2024)
Values belong to the compound of their own block, whether it stands above or below them.

Assays:
[1] = biological target: Mitogen-activated protein kinase 8 (Homo sapiens, UniProt P45983); assay: Inhibition of JNK1 (unknown origin) using ATF2 as substrate after 1 hr by Lanthascreen TR-FRET assay
[2] = system: MOLT-4; assay: Antiproliferative activity against human MOLT-4 cells assessed as reduction in cell growth incubated for 72 hrs by MTT assay; type: functional, cell-based; settings: MOLT-4, 72 h
[3] = system: HCT-116; assay: Antitumor activity against human HCT-116 cells xenografted in athymic nude BALB/c mouse assessed as reduction in tumor growth at 12.5 mg/kg, ip administered every other day and measured every other day for 16 days; type: functional; settings: HCT-116, 384 h, time 16 day, read-out: TGI
[4] = biological target: CYP450 (Homo sapiens, UniProt P04798+P05177+P05181+P08684+P10632+P10635+P11509+P11712+P13584+P20813+P20815+P20853+P24462+P24903+P33260+P33261+P51589+P78329+P98187+Q02928+Q08477+Q16678+Q16696+Q5TCH4+Q6VVX0+Q7Z449+Q8TAV3+Q96SQ9+Q9HB55); assay: Inhibition of CYP450 (unknown origin); type: ADME, protein assay
[5] = biological target: T1, Dual specificity protein kinase TTK (Homo sapiens, UniProt P33981); assay: Inhibition of MPS1 (unknown origin)
T1 sequence (P33981 whole entry): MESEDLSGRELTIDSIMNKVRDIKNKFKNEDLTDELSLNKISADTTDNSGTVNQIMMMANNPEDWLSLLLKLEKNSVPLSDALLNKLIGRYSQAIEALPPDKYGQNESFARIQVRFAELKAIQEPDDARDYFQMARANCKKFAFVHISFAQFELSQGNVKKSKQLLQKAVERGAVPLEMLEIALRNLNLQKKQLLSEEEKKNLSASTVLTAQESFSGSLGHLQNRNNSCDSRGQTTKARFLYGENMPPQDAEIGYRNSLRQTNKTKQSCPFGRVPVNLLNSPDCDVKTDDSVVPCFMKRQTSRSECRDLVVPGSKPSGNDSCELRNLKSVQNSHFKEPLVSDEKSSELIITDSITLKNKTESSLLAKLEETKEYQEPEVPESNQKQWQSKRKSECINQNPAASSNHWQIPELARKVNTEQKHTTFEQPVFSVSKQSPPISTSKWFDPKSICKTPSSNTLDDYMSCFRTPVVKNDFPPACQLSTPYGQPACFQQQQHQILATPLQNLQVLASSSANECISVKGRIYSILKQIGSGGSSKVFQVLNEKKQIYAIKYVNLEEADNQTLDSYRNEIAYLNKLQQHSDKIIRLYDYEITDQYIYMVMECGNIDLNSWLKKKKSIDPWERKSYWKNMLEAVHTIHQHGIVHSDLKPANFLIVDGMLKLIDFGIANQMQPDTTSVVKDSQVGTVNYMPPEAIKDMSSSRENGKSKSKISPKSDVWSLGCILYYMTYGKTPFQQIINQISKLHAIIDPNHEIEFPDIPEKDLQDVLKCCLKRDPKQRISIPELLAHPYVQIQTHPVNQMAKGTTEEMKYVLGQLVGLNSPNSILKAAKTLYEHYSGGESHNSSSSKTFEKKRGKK

[6] = Metabolic stability in mouse liver microsomes assessed as drug metabolism measured after 30 mins; type: ADME, Microsome; settings: read-out: Drug metabolism
[7] = biological target: T2, Aurora kinase A (Homo sapiens, UniProt O14965); assay: Inhibition of AURORA-A (unknown origin)
T2 sequence (O14965 whole entry): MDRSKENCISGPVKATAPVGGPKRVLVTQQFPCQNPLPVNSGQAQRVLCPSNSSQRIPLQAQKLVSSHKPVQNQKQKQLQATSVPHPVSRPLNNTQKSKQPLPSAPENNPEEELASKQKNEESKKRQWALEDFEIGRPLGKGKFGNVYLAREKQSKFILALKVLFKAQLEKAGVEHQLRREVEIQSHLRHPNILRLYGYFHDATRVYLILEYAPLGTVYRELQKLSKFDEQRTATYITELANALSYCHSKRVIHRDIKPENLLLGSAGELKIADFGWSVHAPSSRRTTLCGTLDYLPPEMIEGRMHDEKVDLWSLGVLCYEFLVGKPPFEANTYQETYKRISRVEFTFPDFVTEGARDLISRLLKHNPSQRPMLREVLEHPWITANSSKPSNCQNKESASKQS

[8] = AUC in mouse; type: ADME, organism-based; settings: in vivo
[9] = Half life in mouse; type: ADME, organism-based; settings: in vivo
[10] = system: COLO 205; assay: Antiproliferative activity against human COLO 205 cells assessed as reduction in cell viability incubated for 48 hrs by MTT assay; type: functional, cell-based; settings: COLO 205, 48 h
[11] = Clearance in Sprague-Dawley rat at 1 mg/kg, iv measured after 24 hrs by LC-MS/MS analysis; type: ADME, organism-based; settings: in vivo
[12] = system: CAL-51; assay: Antiproliferative activity against human CAL-51 cells assessed as inhibition of cell growth incubated for 72 hrs by MTT assay; type: functional, cell-based; settings: CAL-51, 72 h
[13] = system: OVCAR-4; assay: Growth inhibition of human OVCAR-4 cells measured after 72 hrs by SRB method; type: functional
[14] = system: IGROV-1; assay: Growth inhibition of human IGROV-1 cells measured after 72 hrs by SRB method; type: functional
[15] = system: OVCAR-5; assay: Anticancer activity against human OVCAR-5 cells assessed as cell growth inhibition measured after 72 hrs by DAPI staining based analysis; type: functional
[16] = system: OVCAR-8; assay: Anticancer activity against human OVCAR-8 cells assessed as cell growth inhibition measured after 72 hrs by DAPI staining based analysis; type: functional
[17] = system: NCI/ADR-RES; assay: Anticancer activity against human NCI-ADR-RES cells assessed as cell growth inhibition measured after 72 hrs by DAPI staining based analysis; type: functional
[18] = system: OVCAR-4; assay: Anticancer activity against human OVCAR-4 cells assessed as cell growth inhibition measured after 72 hrs by DAPI staining based analysis; type: functional
[19] = system: IGROV-1; assay: Anticancer activity against human IGROV-1 cells assessed as cell growth inhibition measured after 72 hrs by DAPI staining based analysis; type: functional
[20] = system: OVCAR-3; assay: Anticancer activity against human OVCAR-3 cells assessed as cell growth inhibition measured after 72 hrs by DAPI staining based analysis; type: functional
[21] = system: SK-OV-3; assay: Anticancer activity against human SK-OV-3 cells assessed as cell growth inhibition measured after 72 hrs by DAPI staining based analysis; type: functional
[22] = system: A549; assay: Antiproliferative activity against human A549 cells assessed as reduction in cell growth incubated for 48 hrs by MTT assay; type: functional, cell-based; settings: A549, 48 h
[23] = Dose normalized AUC in Wistar rat at 1 mg/kg, po measured for 24 hrs by LC-MS/MS analysis; type: ADME, organism-based; settings: in vivo
[24] = Dose normalized AUC in Beagle dog at 1 mg/kg, po measured for 24 hrs by LC-MS/MS analysis; type: ADME, organism-based, Canis lupus familiaris; settings: in vivo
[25] = Clearance in Wistar rat at 1 mg/kg, iv measured after 24 hrs by LC-MS/MS analysis; type: ADME, organism-based; settings: in vivo
[26] = Clearance in Beagle dog at 0.5 mg/kg, iv measured for 24 hrs by LC-MS/MS analysis; type: ADME, organism-based, Canis lupus familiaris; settings: in vivo

Mitogen-activated protein kinase 8, sequence (P45983 whole entry): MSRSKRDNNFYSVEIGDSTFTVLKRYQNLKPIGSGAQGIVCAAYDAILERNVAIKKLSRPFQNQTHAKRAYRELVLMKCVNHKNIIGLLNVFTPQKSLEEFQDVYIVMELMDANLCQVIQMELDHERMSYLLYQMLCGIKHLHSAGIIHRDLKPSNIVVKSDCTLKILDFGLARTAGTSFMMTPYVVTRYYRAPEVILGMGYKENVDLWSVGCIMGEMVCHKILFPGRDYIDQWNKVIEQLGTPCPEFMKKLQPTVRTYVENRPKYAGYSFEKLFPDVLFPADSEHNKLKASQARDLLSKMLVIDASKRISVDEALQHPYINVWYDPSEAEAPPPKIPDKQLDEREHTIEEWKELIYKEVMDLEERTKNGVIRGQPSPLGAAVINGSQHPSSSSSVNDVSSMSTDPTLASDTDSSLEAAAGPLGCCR

IC50 [1]: 28 nM
SMILES: CCOc1ccc2[nH]nc(-c3ccc(NC(C)=O)cc3)c2c1

IC50 [2]: 11 nM
SMILES: COc1cc(N2CCN(C)CC2)ccc1Nc1ncc2c(n1)-n1ccc(C(=O)Nc3c(C)cccc3C)c1CC2

IC50 [4]: 700 nM
SMILES: CCc1ccccc1C(C(=O)Nc1ccc2[nH]nc(-c3cccc(S(N)(=O)=O)c3)c2c1)N(C)C (configuration not stated)
inhibition in vivo at 12.5 mg/kg [3]: 10%

IC50 [5]: 1 nM
SMILES: COc1cc(C(=O)N(C)C)ccc1Nc1nc(OC2CCCC2)c2cc[nH]c2n1

IC50 [2]: 11 nM
SMILES: COc1cc(N2CCN(C)CC2)ccc1Nc1ncc2c(n1)-n1ccc(C(=O)Nc3c(C)cccc3F)c1CC2

metabolised at 0.5 h [6]: 23%
IC50 [7]: > 100000 nM
SMILES: COC1CCN(C(=O)c2ccc(Nc3cc4[nH]c(C(=O)N(C)C)cc4cn3)c(Cl)c2)CC1

metabolised at 0.5 h [6]: 25%
IC50 [7]: > 40000 nM
SMILES: CN(C)C(=O)c1cc2cnc(Nc3ccc(S(=O)(=O)N(C)C)cc3Cl)cc2[nH]1

AUC [8]: 2.33 µM·h
half-life [9]: 3.2 h
IC50 [10]: 200 nM
SMILES: CCC(=O)N[C@H]1CC[C@@H](n2c(=O)cc(C)c3cnc(Nc4ccc(N5CCN(C(=O)CCCCC#Cc6ccc7c(c6)CN(C6CCC(=O)NC6=O)C7=O)CC5)cc4OC)nc32)CC1 (some centres not stated)

clearance [11]: 33 mL/min/kg
SMILES: Cn1cc(-c2cc3[nH]nc(-c4cccc(S(N)(=O)=O)c4)c3cc2NC2CCCCC2)cn1

metabolised at 0.5 h [6]: 20%
IC50 [7]: > 100000 nM
SMILES: CN(C)C(=O)c1cc2cnc(Nc3ccc(-c4cnn(C)c4)cc3Cl)cc2[nH]1

SMILES: COc1cc(C(=O)NC(C)(C)CO)ccc1Nc1nc(OC2CCCC2)c2c(-c3ccc4nc(C)oc4c3)c[nH]c2n1
IC50 [12]: 100 nM

GI50 [13]: 1600 nM
SMILES: O=c1c2cc(Cl)ccc2sc2c(NCCCNCCO)nc3ccccc3c12
GI50 [14]: 1600 nM
TGI [15]: 3500 nM
TGI [16]: 3320 nM
TGI [17]: 3630 nM
TGI [18]: 3230 nM
TGI [19]: 3600 nM
TGI [20]: 3510 nM
TGI [21]: 3380 nM

IC50 [22]: 386 nM
SMILES: CCOc1cc2c(-c3cccc(S(N)(=O)=O)c3)n[nH]c2cc1-c1cn[nH]c1

AUC/dose [23]: 2.4 kg·h/L
AUC/dose [24]: 2.5 kg·h/L
clearance [25]: 8.67 mL/min/kg
clearance [26]: 7.33 mL/min/kg
SMILES: COc1ccc(Oc2cc(NCCC(F)(F)F)c3ncc(-c4ccc(C(=O)NC5CC5)c(C)c4)n3n2)c(F)c1F [BAY-1217389]

IC50 [5]: 8.7 nM
SMILES: CN1CCC(c2ccc(Nc3ncc4c(n3)-n3ccc(C(N)=O)c3CC4)cc2)CC1
